Among the data in PubChem BioAssay (NCI) are GI50 and TGI values, retold here.

Each structure is given as a SMILES string. Values joined by “and” are separate entries in the source; they are usually repeats but may differ in a detail not shown here. Identical values can stand only once.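 All cell lines were grown in 96-well plates and treated with compound for 48 hours. Here, GI50 denotes the concentration required for 50% inhibition of growth. TGI is the concentration that stops growth completely.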 Where a SMILES comes first, the peptide text is derived from it. [ ]: non-standard residue; d: D form. 2Nal = N[CH](Cc1ccc2ccccc2c1)C(=O)O

What all share (test): NCI anticancer screen, dose series, 48 h
The test system of assay [1] is HCT-15 colon.
Assay [2] concerns OVCAR-3 ovarian.
Assay [3] deals with K-562 leukemia.
The subject of assay [4] is SF-539 CNS.
Assay [5] relates to CAKI-1 renal.
The test system of assay [6] is OVCAR-4 ovarian.
For assay [7], the system named is SF-268 CNS.
Assay [8] relates to SW-620 colon.
Assay [9] deals with MDA-MB-231 breast.
For assay [10], the system named is UO-31 renal.

For the compound `CC(NC(=O)C(N)Cc1ccccc1)C(=O)NC(Cc1ccc(O)cc1)C(=O)NC(Cc1c[nH]c2ccccc12)C(=O)NC(CCCCN)C(=O)NC(C(=O)NC(C)C(=O)NC(Cc1ccc2ccccc2c1)C(N)=O)C(C)C` (stereo not given) (H-FAYWKVA[2Nal]-NH2; configuration not given here), the GI50 in assay [1] was 22.1 µM; in [2] it was 18.8 µM; in assay [3] it was 16.9 µM; in assay [4] it was 21.8 µM; in assay [6], 27.2 µM; in assay [10], 27.1 µM. Further, the TGI is > 12.5 µM and 61.8 µM in assay [1]; > 12.5 µM and 43.2 µM in assay [2]; > 12.5 µM and 30.5 µM in [3]; > 12.5 µM and 62.4 µM in assay [4]; > 12.5 µM and 39.1 µM in assay [5]; > 12.5 µM and 84.3 µM in assay [6]. Besides, the TGI in assay [7] was above 12.5 µM; in assay [8], above 12.5 µM; in assay [9], above 12.5 µM; in assay [10], > 12.5 µM and 58.6 µM.
Turning to `O=C(Nc1ccc(-n2cc(-c3ccncc3)c(-c3ccc(Cl)c(O)c3)n2)cc1)c1cc(Cl)cc(Cl)c1`, the GI50 in assay [1] was 1.31 µM; in assay [2], above 100 µM; in [3] it was 1.11 µM; in assay [4], 1.88 µM; in assay [5], 2.03 µM; in assay [6], above 94 µM. Further, the GI50 in assay [7] is above 100 µM; in assay [8] it was 3.72 µM; in [9], 0.802 µM; in assay [10] it was 3.94 µM. The TGI in assay [1] was above 21.8 µM; in [2], above 100 µM; in [3], above 100 µM; in assay [4], above 100 µM; in assay [5] it was above 24.6 µM; in assay [6], above 100 µM. For the same compound, the TGI in assay [7] was above 100 µM; in assay [8], above 28.8 µM; in [9] it was 4.01 µM; in assay [10], above 100 µM.
Consider `CCOC(=O)c1c(C)c2c(n1C)CSc1cc(S(=O)(=O)c3ccccc3)c(=O)[nH]c1-2`, for which the GI50 in assay [1] was 25.8 µM; in [2], 17.1 µM; in assay [3] it was 14.6 µM; in [4], 24.5 µM; in assay [5], 21.1 µM; in assay [6], 27.8 µM. Besides, the GI50 was 27.8 µM in [7], 35.1 µM in assay [8], 24.5 µM in assay [9] and 17.4 µM in assay [10]. Moreover, the TGI was above 100 µM in assay [1]; 43.6 µM in assay [2]; above 100 µM in assay [3]; above 100 µM in assay [4]; above 100 µM in assay [5]; above 100 µM in [6]. Besides, the TGI in [7], in assay [8], in assay [9] and in assay [10] was above 100 µM throughout.
With `O=C=Nc1ccc(Cc2ccc(N=C=O)cc2)cc1` (tested in a mixture with another compound), the GI50 in assay [1] is above 25 µg/mL; in assay [2], above 25 µg/mL; in [3] it was 12.3 µg/mL; in assay [4], above 25 µg/mL; in assay [5], above 25 µg/mL; in assay [6], above 25 µg/mL. Also, the GI50 in assay [7], in assay [8], in [9] and in [10] was above 25 µg/mL each time. The TGI in assay [1], in [2], in assay [3], in assay [4], in assay [5] and in assay [6] was above 25 µg/mL throughout. The TGI in assay [7], in assay [8], in assay [9] and in assay [10] was above 25 µg/mL throughout.
Take `COc1cc(/C=C2\C(=O)N(c3c(Cl)cccc3Cl)c3ccccc32)cc(OC)c1O`: the GI50 is 0.0682 µM in assay [1]; 0.905 µM in [2]; 0.243 µM in assay [3]; 0.531 µM in assay [4]; 0.455 µM in assay [5]; 1.69 µM in assay [6]. Further, the GI50 in [7] is 0.413 µM; in assay [8], 0.702 µM; in assay [9], 2.56 µM; in [10], 0.769 µM. Further, the TGI was 11.2 µM in [1]; 7.24 µM in [2]; above 66.6 µM in assay [3]; 17.3 µM in assay [4]; 19.1 µM in assay [5]; 12.1 µM in assay [6]. Besides, the TGI in assay [7] worked out at 14.6 µM; in assay [8] it was 16.2 µM; in assay [9], 31.5 µM; in [10], 12.3 µM.
As for `C#C[C@]1(O)CC[C@H]2[C@@H]3CC=C4c5nc(Nc6ccc(OC)cc6OC)sc5CC[C@]4(C)[C@H]3CC[C@@]21C`, the GI50 in assay [1] was 1.3 µM; in [2], 1.58 µM; in assay [3] it was 0.525 µM; in [4], 0.374 µM; in assay [5], 1.39 µM; in assay [6], 4.44 µM. Also, the GI50 was 1.75 µM in assay [7], 1.55 µM in assay [8], 1.26 µM in assay [9] and 1.36 µM in [10]. Also, the TGI in [1] is 4.2 µM; in assay [2], 3.74 µM; in assay [3], 13 µM; in assay [4] it was 1.7 µM; in [5], 5.74 µM; in assay [6], above 100 µM. Moreover, the TGI was 6.65 µM in assay [7], 3.71 µM in assay [8], 5.34 µM in assay [9] and 5.16 µM in assay [10].
Take `NC(=O)c1c(OCc2c(F)cc(Br)cc2F)nsc1NC(=O)NCCCCN1CCCC1`: the GI50 in [1] was 2.85 µM; in [2], 1.81 µM; in assay [3], 1.44 µM; in [4] it was 1.38 µM; in assay [5] it was 2.49 µM; in [6], above 10 µM. Besides, the GI50 was 1.78 µM in [7], 3.03 µM in assay [8], 1.55 µM in assay [9] and 0.498 µM in [10]. Also, the TGI in assay [1] was above 10 µM; in assay [2], 4.52 µM; in assay [3] it was 5.91 µM; in assay [4] it was 2.92 µM; in [5], above 10 µM; in [6], above 10 µM. Further, the TGI in assay [7] is above 10 µM; in assay [8], above 10 µM; in [9] it was 5.02 µM; in [10], 2.1 µM.
For the compound `NC(N)=NC(N)=NCCc1ccccc1`, the GI50 in assay [1] is above 100 µM; in [2] it was 83.9 µM and > 100 µM; in [3], 66.6 µM and 30.8 µM; in assay [4], above 100 µM; in assay [5], 58.5 µM and > 100 µM; in [6] it was 66.7 µM and 97.9 µM. The GI50 was above 100 µM in assay [7]; above 100 µM in [8]; above 100 µM in [9]; 98.9 µM and 38.5 µM in assay [10]. Further, the TGI in assay [1], in assay [2], in [3], in [4], in [5] and in [6] was above 100 µM each time. Besides, the TGI in assay [7], in assay [8], in [9] and in assay [10] was above 100 µM throughout.
With `Cc1ccc(NC2=C(Cl)C(=O)c3nc(C)ccc3C2=O)cc1`, the GI50 in assay [1] was 0.694 µM; in assay [2], 0.395 µM; in [3] it was 0.702 µM; in assay [4], 1.67 µM; in [5] it was 1.36 µM; in [6] it was 1.28 µM. In addition, the GI50 in [7] was 1.74 µM; in [8], 1.74 µM; in assay [9] it was 1.41 µM; in assay [10], 1.53 µM. Moreover, the TGI in assay [1] was 2.32 µM; in [2], 1.39 µM; in assay [3], above 100 µM; in assay [4] it was 3.11 µM; in [5] it was 2.68 µM; in assay [6] it was 2.66 µM. Moreover, the TGI was found to be 3.78 µM in [7], 3.7 µM in [8], 2.96 µM in assay [9] and 2.88 µM in [10].
With `CS(=O)(=O)c1ccc(C(F)(F)F)cc1NC(=O)Nc1cnc(Oc2ccc(-c3cc(Cl)cnc3N)cc2)nc1`, the GI50 is 2.74 µM in assay [1]; 2.08 µM in assay [2]; 2.23 µM in assay [3]; 1.94 µM in assay [4]; 2.98 µM in [5]; 2.9 µM in assay [6]. The GI50 in assay [7] was 2.39 µM; in [8] it was 3.24 µM; in [9], 1.72 µM; in [10] it was 1.86 µM. The TGI in assay [1] turned out to be 13.4 µM; in assay [2], 4.67 µM; in assay [3], 5.51 µM; in assay [4], 4.96 µM; in assay [5], 22.4 µM; in assay [6] it was 12.4 µM. In addition, the TGI came out at 10.3 µM in [7], 16.8 µM in assay [8], 3.79 µM in [9] and 6.72 µM in assay [10].
With `CCN(C)S(=O)(=O)Nc1cccc(Nc2ncnc3cc(NC(=O)CCl)ccc23)c1Cl`, the GI50 was 1.04 µM in [1]; 3.76 µM in assay [2]; 1.1 µM in assay [3]; 3.43 µM in assay [4]; 3.15 µM in assay [5]; 3.53 µM in [6]. The GI50 was 2.84 µM in [7], 1.07 µM in assay [8], 2.59 µM in assay [9] and 4.17 µM in assay [10]. For the same compound, the TGI in assay [1] is 5.52 µM; in assay [2], 7.8 µM; in assay [3], above 25 µM; in [4], 6.77 µM; in assay [5], 8.5 µM; in [6], 8.75 µM. Moreover, the TGI in assay [7] stood at 7.72 µM; in assay [8], 4.52 µM; in assay [9], 7.49 µM; in assay [10], 7.93 µM.
As for `N#Cc1c(NC(=O)CCC(=O)O)ccc2ccccc12`, the TGI in assay [1], in assay [2], in [3], in [4], in assay [5] and in assay [6] was above 100 µM each time. Further, the TGI in [7], in [8], in [9] and in assay [10] was above 100 µM in each case.
As to `N#Cc1ccc(-n2cnc(NC(=O)[C@H]3CCN(C#N)C3)c2)cc1`, the GI50 in assay [1] was 2.2 µM; in assay [3], 2.67 µM; in assay [4], 1.18 µM; in assay [5] it was 2.48 µM; in [6], 1.86 µM; in [7], 2.83 µM. Further, the GI50 in [8] is 1.46 µM; in assay [9], 1.91 µM; in [10], 0.546 µM. Besides, the TGI was above 100 µM in [1]; 4.84 µM in assay [2]; above 100 µM in assay [3]; 5.95 µM in [4]; above 100 µM in assay [5]; 12.5 µM in assay [6]. For the same compound, the TGI in [7] is 25.5 µM; in assay [8] it was 26.4 µM; in assay [9] it was above 91.6 µM; in assay [10], 4 µM.
With `CC(=O)N1c2ccccc2C23CCN4CC5=CCOC(O)C(C5CC42)C13` (stereo not given), the TGI in assay [1], in [2], in assay [3], in assay [4], in assay [5] and in assay [6] was above 100 µM in each case. Also, the TGI in [7], in assay [8], in assay [9] and in assay [10] was above 100 µM throughout.
For the compound `Cc1ccnc2c1NC(=O)c1cccnc1N2C1CC1`, the GI50 in [1], in assay [2], in [3], in assay [4], in assay [5] and in assay [6] was above 100 µM each time. Besides, the GI50 in [7] was above 100 µM; in [8], above 100 µM; in [9], above 100 µM; in assay [10] it was 48.7 µM. For the same compound, the TGI in assay [1], in assay [2], in assay [3], in [4], in assay [5] and in assay [6] was above 100 µM each time. For the same compound, the TGI in assay [7], in assay [8], in assay [9] and in [10] was above 100 µM in each case.
